Test results reported in ChEMBL document CHEMBL2074296, “Kinetic analysis of hepatobiliary transport of organic anions in Eisai hyperbilirubinemic mutant rats” (J Pharmacol Exp Ther, 1993).

Legend:
[1] = molecular target: T1, ATP-binding cassette sub-family C member 2 (Rattus norvegicus, UniProt Q63120); experiment: TP_TRANSPORTER: biliary excretion in SD rat; type: functional, organism-based, Sprague-Dawley, Bile; conditions: in vivo
[2] = molecular target: T1, ATP-binding cassette sub-family C member 2; experiment: TP_TRANSPORTER: biliary excretion in EHBR rat; type: functional, organism-based, Bile; conditions: in vivo

T1 sequence (Q63120 whole entry): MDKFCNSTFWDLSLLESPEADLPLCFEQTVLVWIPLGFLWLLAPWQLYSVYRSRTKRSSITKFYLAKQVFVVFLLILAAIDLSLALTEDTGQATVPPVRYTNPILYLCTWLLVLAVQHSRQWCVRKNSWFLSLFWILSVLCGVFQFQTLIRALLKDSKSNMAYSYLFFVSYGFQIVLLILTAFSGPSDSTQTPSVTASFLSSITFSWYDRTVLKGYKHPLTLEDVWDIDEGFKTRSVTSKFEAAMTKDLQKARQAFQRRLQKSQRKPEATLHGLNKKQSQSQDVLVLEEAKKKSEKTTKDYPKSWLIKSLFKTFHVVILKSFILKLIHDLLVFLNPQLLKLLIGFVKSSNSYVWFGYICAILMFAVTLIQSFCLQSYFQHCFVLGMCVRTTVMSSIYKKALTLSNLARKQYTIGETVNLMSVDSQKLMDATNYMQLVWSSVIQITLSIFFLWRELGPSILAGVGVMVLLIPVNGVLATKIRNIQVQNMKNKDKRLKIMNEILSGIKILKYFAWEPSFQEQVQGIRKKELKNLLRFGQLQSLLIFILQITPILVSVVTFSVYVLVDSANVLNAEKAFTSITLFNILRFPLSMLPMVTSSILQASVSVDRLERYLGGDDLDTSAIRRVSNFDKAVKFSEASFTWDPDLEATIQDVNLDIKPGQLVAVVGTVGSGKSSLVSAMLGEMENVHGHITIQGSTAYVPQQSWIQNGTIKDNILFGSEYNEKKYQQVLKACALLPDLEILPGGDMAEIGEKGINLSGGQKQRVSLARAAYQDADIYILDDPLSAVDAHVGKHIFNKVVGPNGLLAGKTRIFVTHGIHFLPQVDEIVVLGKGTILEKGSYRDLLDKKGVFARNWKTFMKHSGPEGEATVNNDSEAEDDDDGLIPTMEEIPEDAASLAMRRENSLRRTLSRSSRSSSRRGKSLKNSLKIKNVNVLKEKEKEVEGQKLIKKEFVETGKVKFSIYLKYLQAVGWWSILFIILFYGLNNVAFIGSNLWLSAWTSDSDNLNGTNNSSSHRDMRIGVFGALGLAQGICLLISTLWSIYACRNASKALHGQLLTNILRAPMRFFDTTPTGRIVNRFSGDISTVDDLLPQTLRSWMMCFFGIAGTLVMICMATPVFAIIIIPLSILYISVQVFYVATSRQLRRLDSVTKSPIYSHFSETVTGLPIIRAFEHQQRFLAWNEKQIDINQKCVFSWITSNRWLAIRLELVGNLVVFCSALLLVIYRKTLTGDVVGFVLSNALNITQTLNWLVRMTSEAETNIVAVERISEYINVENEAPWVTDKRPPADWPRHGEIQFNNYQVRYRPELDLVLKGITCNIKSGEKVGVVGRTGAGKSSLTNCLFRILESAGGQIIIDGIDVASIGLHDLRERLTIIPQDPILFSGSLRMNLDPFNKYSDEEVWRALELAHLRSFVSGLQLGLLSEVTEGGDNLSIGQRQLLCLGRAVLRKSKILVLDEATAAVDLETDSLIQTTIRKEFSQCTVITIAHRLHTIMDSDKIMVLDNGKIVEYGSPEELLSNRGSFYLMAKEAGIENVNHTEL

Row | SMILES | Activity [1] | Activity [2]
1 | CO/N=C(\C(=O)N[C@@H]1C(=O)N2C(C(=O)O)=C(CSc3nc(C)c(CC(=O)O)s3)CS[C@H]12)c1csc(N)n1 [CEFODIZIME] | substrate [+] | substrate [+]
2 | CC1(C)C(/C=C/C=C/C=C/C=C2/N(CCCCS(=O)(=O)[O-])c3ccc4ccccc4c3C2(C)C)=[N+](CCCCS(=O)(=O)[O-])c2ccc3ccccc3c21.[Na+] [INDOCYANINE GREEN] | substrate [+] | substrate [+]
3 | O=C1OC(c2ccc(OS(=O)(=O)O)cc2)(c2ccc(OS(=O)(=O)O)cc2)c2c(Br)ccc(Br)c21 [DIBROMOSULFOPHTHALEIN] | substrate [+] | substrate [+]
